Columns and labels:
human recombinant FAAH = human recombinant FAAH (Homo sapiens (Human), UniProt O00519); assay: In vitro inhibition of FAAH activity (fluorescent inhibitor screening kit, AMC arachidonoyl amide); assay type: biochemical; conditions: human recombinant FAAH; read-out: Inhibition on FAAH activity (IC50)
Outline: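 Fluorogenic kit assay: AMC arachidonoyl amide is cleaved by human recombinant FAAH, read at 340-360/450-465 nm. Percent inhibition versus non-treated control; IC50 values derived from multiple compound concentrations where tested.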

human recombinant MAGL = human recombinant MAGL (Homo sapiens (Human), UniProt Q99685); assay: In vitro inhibition of MAGL activity (inhibitor screening kit, 4-nitrophenylacetate); assay type: biochemical; conditions: human recombinant MAGL
Outline: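 Colorimetric kit assay: recombinant human MAGL hydrolyses 4-nitrophenylacetate to 4-nitrophenol, read by absorbance at 405-412 nm. Inhibition given as percentage of signal in treated versus untreated MAGL control.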

Chain of human recombinant FAAH (O00519 whole entry): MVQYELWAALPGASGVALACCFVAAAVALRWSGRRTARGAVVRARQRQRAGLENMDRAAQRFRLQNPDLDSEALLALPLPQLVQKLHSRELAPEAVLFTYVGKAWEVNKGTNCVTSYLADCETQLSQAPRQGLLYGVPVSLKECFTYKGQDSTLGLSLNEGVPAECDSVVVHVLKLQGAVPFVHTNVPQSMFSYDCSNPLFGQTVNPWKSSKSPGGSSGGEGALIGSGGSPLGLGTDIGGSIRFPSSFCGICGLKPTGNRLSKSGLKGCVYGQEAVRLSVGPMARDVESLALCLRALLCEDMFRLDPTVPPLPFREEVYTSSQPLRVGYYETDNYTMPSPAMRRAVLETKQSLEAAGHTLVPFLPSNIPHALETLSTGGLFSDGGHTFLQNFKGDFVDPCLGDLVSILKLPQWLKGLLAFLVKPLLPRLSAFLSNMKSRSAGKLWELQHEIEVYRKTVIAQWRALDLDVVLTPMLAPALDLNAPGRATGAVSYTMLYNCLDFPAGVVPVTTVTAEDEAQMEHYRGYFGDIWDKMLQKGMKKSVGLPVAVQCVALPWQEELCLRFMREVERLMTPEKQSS
Chain of human recombinant MAGL (Q99685 whole entry): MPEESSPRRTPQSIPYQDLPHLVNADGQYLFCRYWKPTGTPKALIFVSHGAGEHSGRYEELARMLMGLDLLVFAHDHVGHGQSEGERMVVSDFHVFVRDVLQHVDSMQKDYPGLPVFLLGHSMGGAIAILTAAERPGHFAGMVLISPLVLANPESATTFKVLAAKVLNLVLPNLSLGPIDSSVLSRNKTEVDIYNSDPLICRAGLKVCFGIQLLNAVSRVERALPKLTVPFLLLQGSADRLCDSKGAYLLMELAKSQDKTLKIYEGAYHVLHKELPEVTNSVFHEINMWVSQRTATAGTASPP

Row | Compound | IC50 (human recombinant FAAH) [nM] | IC50 (human recombinant MAGL) [nM]
1 | O=C(NC1CC2(CCC2)C1)Oc1cccc(-c2cncc(-c3nnco3)c2)c1 [Example 147, 3-(5-(1,3,4-oxadiazol-2-yl)pyridin-3-yl)phenyl spiro[3.3]heptan-2-ylcarbamate] | 10 to 100 | > 10000
2 | O=C(Oc1cccc(-c2cncc(-c3nnco3)c2)c1)N1CC2CC2C1 (centres unmarked) [Example 148, 3-(5-(1,3,4-oxadiazol-2-yl)pyridin-3-yl)phenyl 3-azabicyclo[3.1.0]hexane-3-carboxylate] | > 1000 | > 10000
3 | O=C(Oc1cccc(-c2cncc(-c3nnco3)c2)c1)N1CC2CCCC2C1 (centres unmarked) [Example 149, 3-(5-(1,3,4-oxadiazol-2-yl)pyridin-3-yl)phenyl hexahydrocyclopenta[c]pyrrole-2(1H)-carboxylate] | 10 to 100 | 1000 to 10000
4 | O=C(Oc1cccc(-c2cncc(-c3nnco3)c2)c1)N1C2CCCC1CC2 [Example 150, 3-(5-(1,3,4-oxadiazol-2-yl)pyridin-3-yl)phenyl 8-azabicyclo[3.2.1]octane-8-carboxylate] | > 1000 | > 10000
5 | O=C(Oc1cccc(-c2cncc(-c3nnco3)c2)c1)N1CCOCC1 [Example 151, 3-(5-(1,3,4-oxadiazol-2-yl)pyridin-3-yl)phenyl morpholine-4-carboxylate] | 1000 to 10000 | > 10000
6 | O=C(Oc1cccc(-c2cncc(-c3nnco3)c2)c1)N1CC2(COC2)C1 [Example 152, 3-(5-(1,3,4-oxadiazol-2-yl)pyridin-3-yl)phenyl 2-oxa-6-azaspiro[3.3]heptane-6-carboxylate] | > 1000 | > 10000
7 | O=C(Oc1cccc(-c2cncc(-c3nnco3)c2)c1)N1CCC2(CC1)COC2 [Example 153, 3-(5-(1,3,4-oxadiazol-2-yl)pyridin-3-yl)phenyl 2-oxa-7-azaspiro[3.5]nonane-7-carboxylate] | 1000 to 10000 | > 10000
8 | CCCCN(CCCC)C(=O)Oc1cccc(-c2cncc(-c3nnco3)c2)c1 [Example 155, 3-(5-(1,3,4-oxadiazol-2-yl)pyridin-3-yl)phenyl dibutylcarbamate] | > 1000 | ~10000
9 | CC1CCC(NC(=O)Oc2ccc(O)c(-c3cncc(-c4nnco4)c3)c2)CC1 (centres unmarked) [Example 159] | 10 to 100 | > 10000
10 | CCCCCCCCNC(=O)Oc1cc(O)cc(-c2cncc(-c3nnco3)c2)c1 [Example 160, 3-(5-(1,3,4-oxadiazol-2-yl)pyridin-3-yl)-5-hydroxyphenyl octylcarbamate] | 1 to 10 | 1000 to 10000
11 | O=C(NCC1CCCCC1)Oc1cc(O)cc(-c2cncc(-c3nnco3)c2)c1 [Example 161, 3-(5-(1,3,4-oxadiazol-2-yl)pyridin-3-yl)-5-hydroxyphenyl (cyclohexylmethyl)carbamate] | 10 to 100 | 10000 to 50000
12 | O=C(NCc1ccccc1)Oc1cc(O)cc(-c2cncc(-c3nnco3)c2)c1 [Example 162, 3-(5-(1,3,4-oxadiazol-2-yl)pyridin-3-yl)-5-hydroxyphenyl benzylcarbamate] | ~100 | > 10000
13 | O=C(NC1CCCC1)Oc1cc(O)cc(-c2cncc(-c3nnco3)c2)c1 [Example 163, 3-(5-(1,3,4-oxadiazol-2-yl)pyridin-3-yl)-5-hydroxyphenyl cyclopentylcarbamate] | 10 to 100 | > 50000
14 | O=C(NC1CCCCC1)Oc1cc(O)cc(-c2cncc(-c3nnco3)c2)c1 [Example 164, 3-(5-(1,3,4-oxadiazol-2-yl)pyridin-3-yl)-5-hydroxyphenyl cyclohexylcarbamate] | 10 to 100 | > 50000
15 | COc1ccc(OC(=O)NCC2CCCCC2)cc1-c1cncc(-c2nnco2)c1 [Example 168, 3-(5-(1,3,4-oxadiazol-2-yl)pyridin-3-yl)-4-methoxyphenyl (cyclohexylmethyl)carbamate] | 100 to 1000 | > 10000
16 | COc1ccc(OC(=O)NC2CCCC2)cc1-c1cncc(-c2nnco2)c1 [Example 169, 3-(5-(1,3,4-oxadiazol-2-yl)pyridin-3-yl)-4-methoxyphenyl cyclopentylcarbamate] | 10 to 100 | > 10000
17 | COc1ccc(OC(=O)NC2CCCCC2)cc1-c1cncc(-c2nnco2)c1 [Example 170, 3-(5-(1,3,4-oxadiazol-2-yl)pyridin-3-yl)-4-methoxyphenyl cyclohexylcarbamate] | 100 to 1000 | ~10000
18 | COc1ccc(OC(=O)NC2CCC(C)CC2)cc1-c1cncc(-c2nnco2)c1 (centres unmarked) [Example 171, 3-(5-(1,3,4-oxadiazol-2-yl)pyridin-3-yl)-4-methoxyphenyl (4-methylcyclohexyl)carbamate] | 100 to 1000 | > 10000
19 | CCCCCCCCNC(=O)Oc1cc(OC)cc(-c2cncc(-c3nnco3)c2)c1 [Example 174, 3-(5-(1,3,4-oxadiazol-2-yl)pyridin-3-yl)-5-methoxyphenyl octylcarbamate] | 1 to 10 | ~10000

Row | Compound | IC50 (human recombinant FAAH) [nM] | IC50 (human recombinant MAGL) [nM]
20 | COc1cc(OC(=O)NCC2CCCCC2)cc(-c2cncc(-c3nnco3)c2)c1 [Example 175, 3-(5-(1,3,4-oxadiazol-2-yl)pyridin-3-yl)-5-methoxyphenyl (cyclohexylmethyl)carbamate] | ~100 | > 10000
21 | COc1cc(OC(=O)NCc2ccccc2)cc(-c2cncc(-c3nnco3)c2)c1 [Example 176, 3-(5-(1,3,4-oxadiazol-2-yl)pyridin-3-yl)-5-methoxyphenyl benzylcarbamate] | > 1000 | > 10000
22 | COc1cc(OC(=O)NC2CCCC2)cc(-c2cncc(-c3nnco3)c2)c1 [Example 177, 3-(5-(1,3,4-oxadiazol-2-yl)pyridin-3-yl)-5-methoxyphenyl cyclopentylcarbamate] | 100 to 1000 | > 10000
23 | COc1cc(OC(=O)NC2CCCCC2)cc(-c2cncc(-c3nnco3)c2)c1 [Example 178, 3-(5-(1,3,4-oxadiazol-2-yl)pyridin-3-yl)-5-methoxyphenyl cyclohexylcarbamate] | ~100 | > 10000
24 | CCCCCCCCNC(=O)Oc1ccc(N(C)C)c(-c2cncc(-c3nnco3)c2)c1 [Example 180, 3-(5-(1,3,4-oxadiazol-2-yl)pyridin-3-yl)-4-(dimethylamino)phenyl octylcarbamate] | 10 to 100 | > 10000
25 | CN(C)c1ccc(OC(=O)NCC2CCCCC2)cc1-c1cncc(-c2nnco2)c1 [Example 181, 3-(5-(1,3,4-oxadiazol-2-yl)pyridin-3-yl)-4-(dimethylamino)phenyl (cyclohexylmethyl)carbamate] | ~1000 | > 10000
26 | CN(C)c1ccc(OC(=O)NCc2ccccc2)cc1-c1cncc(-c2nnco2)c1 [Example 182, 3-(5-(1,3,4-oxadiazol-2-yl)pyridin-3-yl)-4-(dimethylamino)phenyl benzylcarbamate] | > 1000 | > 10000
27 | CN(C)c1ccc(OC(=O)NC2CCCCC2)cc1-c1cncc(-c2nnco2)c1 [Example 184, 3-(5-(1,3,4-oxadiazol-2-yl)pyridin-3-yl)-4-(dimethylamino)phenyl cyclohexylcarbamate] | > 1000 | > 10000
28 | CN(C)c1ccc(OC(=O)NC2CCCCCC2)cc1-c1cncc(-c2nnco2)c1 [Example 185, 3-(5-(1,3,4-oxadiazol-2-yl)pyridin-3-yl)-4-(dimethylamino)phenyl cycloheptylcarbamate] | 100 to 1000 | > 10000
29 | CSc1ccc(OC(=O)NCC2CCCCC2)cc1-c1cncc(-c2nnco2)c1 [Example 187, 3-(5-(1,3,4-oxadiazol-2-yl)pyridin-3-yl)-4-(methylthio)phenyl (cyclohexylmethyl) carbamate] | 100 to 1000 | > 10000
30 | CSc1ccc(OC(=O)NCc2ccccc2)cc1-c1cncc(-c2nnco2)c1 [Example 188, 3-(5-(1,3,4-oxadiazol-2-yl)pyridin-3-yl)-4-(methylthio)phenyl benzylcarbamate] | > 1000 | > 10000
31 | CSc1ccc(OC(=O)NC2CCCC2)cc1-c1cncc(-c2nnco2)c1 [Example 189, 3-(5-(1,3,4-oxadiazol-2-yl)pyridin-3-yl)-4-(methylthio)phenyl cyclopentylcarbamate] | 100 to 1000 | > 10000
32 | CSc1ccc(OC(=O)NC2CCCCC2)cc1-c1cncc(-c2nnco2)c1 [Example 190, 3-(5-(1,3,4-oxadiazol-2-yl)pyridin-3-yl)-4-(methylthio)phenyl cyclohexylcarbamate] | 100 to 1000 | > 10000
33 | O=C(NC1CCCCC1)Oc1ccc(F)c(-c2cncc(-c3nnco3)c2)c1 [Example 192, 3-(5-(1,3,4-oxadiazol-2-yl)pyridin-3-yl)-4-fluorophenyl cyclohexylcarbamate] | 10 to 100 | > 10000
34 | CC1CCC(NC(=O)Oc2ccc(F)c(-c3cncc(-c4nnco4)c3)c2)CC1 (centres unmarked) [Example 193, 3-(5-(1,3,4-oxadiazol-2-yl)pyridin-3-yl)-4-fluorophenyl (4-methylcyclohexyl)carbamate] | 10 to 100 | > 10000
35 | CCCCCCCCNC(=O)Oc1cc(F)cc(-c2cncc(-c3nnco3)c2)c1 [Example 195, 3-(5-(1,3,4-oxadiazol-2-yl)pyridin-3-yl)-5-fluorophenyl octylcarbamate] | 1 to 10 | ~1000
36 | O=C(NCc1ccccc1)Oc1cc(F)cc(-c2cncc(-c3nnco3)c2)c1 [Example 196, 3-(5-(1,3,4-oxadiazol-2-yl)pyridin-3-yl)-5-fluorophenyl benzylcarbamate] | > 1000 | ~10000
37 | O=C(NC1CCCCC1)Oc1cc(F)cc(-c2cncc(-c3nnco3)c2)c1 [Example 197, 3-(5-(1,3,4-oxadiazol-2-yl)pyridin-3-yl)-5-fluorophenyl cyclohexylcarbamate] | 100 to 1000 | > 10000
